Patent EP0002058A1, “3-(2-Aminoethylthio-6-ethyl-7-oxo-1-azabicylo-(3.2.0)-hept-2-en-2-carboxylic acid, process for preparing it and compositions comprising it” (SANRAKU-OCEAN CO., LTD., priority 1977, dated 1979)
≈ marks a conversion by molar mass, not a printed value. Structures can show the parent of a compound that is named as a salt.

How the values were obtained:
[1] = tested on: Klebsiella pneumoniae K-2; experiment: Minimum inhibitory concentration, broth dilution method (brain heart infusion medium); type: cell-based; conditions: K2, inoculum about 1 x 10^5/ml, 35°C, 20 hours
Protocol: (§1) The minimum inhibitory concentration was determined on various pathogenic microorganisms including a resistant strain to the N-desacetyl derivative by the broth dilution method with a brain heart infusion medium "Eiken" (Eiken Kagaku Co.). Sample solutions to be tested were prepared in a serial dilution with the medium, which were inoculated with the test microorganisms at the final cell count of about 1 x 10^5/ml and incubated at 35 °C. After 20 hours the microbial growth was examined. The minimum inhibitory concentration was determined as the lowest concentration of the sample at which no growth of the corresponding test microorganism was observed.

[2] = tested on: Staphylococcus aureus FDA 209P; experiment: as above; type: cell-based; conditions: for MIC: Staphylococcus aureus, FDA209P, inoculum about 1 x 10^5/ml, 35°C, 20 hours
Protocol: as §1

[3] = tested on: Staphylococcus aureus Russel; experiment: as above; type: cell-based; conditions: inoculum about 1 x 10^5/ml, 35°C, 20 hours
Protocol: as §1

[4] = tested on: Comanonas terrigena B-996; experiment: Bioassay of antibacterial potency (disc on agar assay plate, CCU); type: cell-based; conditions: purified solid preparation
Source text: • (1) Cells of Comanonas terrigena B-996, cultivated on a nutrient agar overnight, are suspended in a nutrient broth to give a seed culture having an absorbance at […], ascribable to the cells, of 0.04. A melted agar medium consisting of 0.8% Kyokuto powdered bouillon (Kyokuto Seiyaku Kogyo) and 1% Bacto agar (Difco Labs.) is inoculated with 1% of the seed culture. Seven ml portions of the agar medium are poured into petri dishes with a diameter of 9 cm and solidified to prepare a Comamonas assay plate. • (2) Staphylococcus aureus FDA209P is cultivated overnight with shaking in a nutrient broth. The culture is diluted to 50 times with a nutrient broth to obtain a seed culture. A melted agar medium consisting of 1% Kyokuto powdered bouillon (Kyokuto Seiyaku Kogyo) and 1% Bacto agar (Difco Labs.) is inoculated with 1% of the seed culture. Seven ml portions of the agar medium are poured into petri dishes with a diameter of 9 cm and solidified to prepare a Staphylococcus assay plate. • (3) A pulp disc with a diameter of 8 mm is soaked in a sample solution and put on the assay plate mentioned above after removing an excess of the sample solution soaked by placing on filter paper. […] The diameter of the inhibitory zone is measured. TIle concentration of the test compound in the sample solution is calculated by comparing the diameter with that of the standard solution.

[5] = tested on: Staphylococcus aureus Smith; experiment: Activity in vivo in mice inoculated intraperitoneally with Staphylococcus aureus Smith; parameters: species or system male ddy mice; conditions: sc, 5 x 10^5 cells/mouse intraperitoneally, injected subcutaneously immediately after the inoculation, read-out: CD50 value
Protocol: The N-desacetyl derivative was prepared on a large scale in a similar manner to the above-described and the activity in vivo was determined in mice inoculated with 5 x 10^5 cells/mouse of Staphylococcus aureus Smith intraperitoneally. The derivative was injected subcutaneously immediately after the inoculation.

[6] = parameters: species or system male ddy mice; conditions: mouse, in vivo, ip, 500 mg/kg
Solubility = type: physicochemical
staphylococcal bacteria = experiment: Antimicrobial spectrum (general statement); type: cell-based
[7] = tested on: pathogenic Gram-positive bacteria; experiment: Activity in vivo (general statement); conditions: mice infected with pathogenic Gram-positive bacteria

SMILES	MIC [1]	MIC [2]	MIC [3]	antibacterial potency [4]	further results
CO[C@@]1(NC(=O)Cc2cccs2)C(=O)N2C(C(=O)O)=C(COC(N)=O)CS[C@@H]21 [Cefoxitin, reference compound]	12.5 µg/mL (≈ 29.2 µM)	1.56 µg/mL (≈ 3.65 µM)	3.13 µg/mL (≈ 7.32 µM)		
CC[C@H]1C(=O)N2C(C(=O)O)=C(SCCNC(C)=O)C[C@H]12 (relative stereo) [PS-5 sodium salt, reference compound]				21,000 CCU/mg	
CC[C@H]1C(=O)N2C(C(=O)OC(c3ccccc3)(c3ccccc3)c3ccccc3)=C(SCCNC(C)=O)C[C@H]12 (relative stereo) [trityl ester of antibiotic PS-5]				10,800 CCU/mg	
CCC1C(=O)N2C(C(=O)O)=C(SCCN)CC12 (stereo not drawn) [N-desacetyl derivative]	5 µg/mL (≈ 19.5 µM)	0.008 µg/mL (≈ 0.0312 µM)	0.063 µg/mL (≈ 0.246 µM)		inhibitory activity relative to that of the antibiotic PS-5 ([2]; Staphylococcus aureus FDA 209p, times higher than antibiotic PS-5): about 10 times; ED50 [5]: 0.55 mg/kg; acute toxicity [6]: No acute toxicity; Solubility in acetone, ethyl acetate and benzene (Solubility; acetone, ethyl acetate and benzene): practically insoluble; Solubility in water (Solubility; water): easily soluble; antimicrobial activity (staphylococcal bacteria): high antimicrobial activity; therapeutic effect [7]: remarkable therapeutic effect
